Patent US20060079512A1, “Dibenzodiazepinone analogues, processes for their production and their use as pharmaceuticals” (Ecopia BioSciences, Inc., priority 2003, published 2006)

Key:
Format in all cases: cell-based
[1] = system: MDA-MB-231 (mammary gland adenocarcinoma); test: In vitro cytotoxic activity (GI50), method (b), propidium iodide; conditions: Homo sapiens, 96 hrs
Experimental: (§1) Row H was filled wih medium only (150 μL, negative control-medium).

[2] = system: HT-29 (colorectal carcinoma); test: as above; conditions: Homo sapiens, 96 hrs
Experimental: as §1

SF268 (CNS) = test: as above; conditions: Homo sapiens, SF-268, 96 hrs
Experimental: as §1

[3] = system: PC-3 (prostate adenocarcinoma); test: as above; conditions: 96 hrs
Experimental: as §1

[4] = system: HT-29, SF-268, PC-3, MDA-MB-231; test: Average GI50 over the four cell lines, method (b); conditions: for GI50: values > 30 not considered; for anticancer activity compared with Compound 1: four cell lines
Experimental: as §1

GI50 [4] [µM]	Compound	GI50 [1] [µM]	GI50 [2] [µM]	GI50 (SF268 (CNS)) [µM]	GI50 [3] [µM]	anticancer activity compared with Compound 1 [4]
9.98	CCC(C)N1c2c(O)cccc2C(=O)N(C/C=C(\C)CC/C=C(\C)CCC=C(C)C)c2cc(O)cc(O)c21 (stereo not drawn) [Compound 77, 10-Farnesyl-4,6,8-trihydroxy-5-sec-butyl-5,10-dihydro-dibenzo[b,e][1,4]diazepin-11-one]	5.62	13.9	3.31	17.1	
1.14	COC(C)(CCC=C(C)C)CCC/C(C)=C/CN1C(=O)c2cccc(O)c2N(C)c2c(O)cc(O)cc21 (stereo not drawn) [Compound 80, 10-(7-methoxy-3,7,11-trimethyldodeca-2,10-dienyl)-4,6,8-trihydroxy-5-methyl-5,10-dihydro-dibenzo[b,e][1,4]diazepin-11-one]	1.02	1.43	0.33	1.8	better anticancer activity than Compound 1
13.2	COC(C)(C)CCC/C(C)=C/CC/C(C)=C/CN1C(=O)c2cccc(O)c2Nc2c(O)cc(O)cc21 [Compound 82, 10-(11-methoxy-3,7,11-trimethyl-2,6-dodecadienyl)-4,6,8-trihydroxy-5,10-dihydro-dibenzo[b,e][1,4]diazepin-11-one]	11	23.6	4.75	13.4	
17.5	CC(C)=CCCC(C)(O)CCC/C(C)=C/CN1C(=O)c2cccc(O)c2Nc2c(O)cc(O)cc21 (stereo not drawn) [Compound 89, 10-(7-hydroxy-3,7,11-trimethyldodeca-2,10-dienyl)-4,6,8-trihydroxy-5,10-dihydro-dibenzo[b,e][1,4]diazepin-11-one]	25.3	> 30	13.7	13.5	
28.2	CC(C)=CCC/C(C)=C/CC/C(C)=C/CN1C(=O)c2cccc(OC(=O)c3ccccc3)c2Nc2c(OC(=O)c3ccccc3)cc(OC(=O)c3ccccc3)cc21 [Compound 105, 4,6,8-tribenzoyloxy-10-farnesyl-5,10-dihydro-dibenzo[b,e][1,4] diazepin-11-one]	> 30	> 30	28.2	> 30	
1.74	CCCN1c2c(O)cccc2C(=O)N(C/C=C(\C)CC/C=C(\C)CCC=C(C)C)c2cc(O)cc(O)c21 [Compound 63, 10-farnesyl-4,6,8-trihydroxy-5-n-propyl-5,10-dihydro-dibenzo[b,e][1,4]diazepin-11-one]	2.27	2.57	0.89	1.25	better anticancer activity than Compound 1
8.47	CCOC(=O)CN1c2c(O)cccc2C(=O)N(C/C=C(\C)CC/C=C(\C)CCC=C(C)C)c2cc(O)cc(O)c21 [Compound 101, (10-Farnesyl-4,6,8-trihydroxy-5,10-dihydrodibenzo[b,e][1,4]diazepin-11-on-5-yl)acetic acid ethyl ester]	3.67	18.2	3.27	8.73	
1.82	CC(C)=CCC/C(C)=C/CC/C(C)=C/CN1C(=O)c2cccc(O)c2Nc2c1cc(O)c(Br)c2O [Compound 97, 10-(farnesyl)-7-bromo-4,6,8-trihydroxy-5,10-dihydro-dibenzo[b,e][1,4]diazepin-11-one]	2.02	2.02	2.04	1.19	generally more active than Compound 1
16.2	COC(C)(C)CCCC(C)(CCC/C(C)=C/CN1C(=O)c2cccc(O)c2Nc2c(O)cc(O)cc21)OC (stereo not drawn) [Compound 84, 10-(7,11-dimethoxy-3,7,11-trimethyl-2-dodecenyl)-4,6,8-trihydroxy-5,10-dihydro-dibenzo[b,e][1,4]diazepin-11-one]	23.5	21.5	3.49	16.4	
0.21	CC(C)CCCC(C)CCCC(C)CCN1C(=O)c2cccc(O)c2N(C)c2c(O)cc(O)cc21 (stereo not drawn) [Compound 78, 10-(3,7,11-trimethyldodecyl)-4,6,8-trihydroxy-5-methyl-5,10-dihydro-dibenzo[b,e][1,4]diazepin-11-one]	0.24	0.29	0.07	0.23	better anticancer activity than Compound 1
16	CC(C)=CCCC1(C)OC1CC/C(C)=C/CN1C(=O)c2cccc(O)c2Nc2c(O)cc(O)cc21 (stereo not drawn) [Compound 17, 10-(3,7,11-trimethyl-6,7-epoxydodeca-2,10-dienyl)-4,6,8-trihydroxy-5,10-dihydro-dibenzo[b,e][1,4]diazepin-11-one]	> 30	> 30	13.4	18.7	
0.54	[2H]C([2H])([2H])N1c2c(O)cccc2C(=O)N(C/C=C(\C)CC/C=C(\C)CCC=C(C)C)c2cc(O)cc(O)c21 [Compound 98, 10-Farnesyl-4,6,8-trihydroxy-5-(trideuteriomethyl)-5,10-dihydro-dibenzo[b,e][1,4]diazepin-11-one]	0.51	0.69	0.16	0.82	better anticancer activity than Compound 1
1.55	CCCCCCN1c2c(O)cccc2C(=O)N(C/C=C(\C)CC/C=C(\C)CCC=C(C)C)c2cc(O)cc(O)c21 [Compound 67, 10-farnesyl-4,6,8-trihydroxy-5-n-hexyl-5,10-dihydro-dibenzo[b,e][1,4]diazepin-11-one]	1.92	2.44	0.53	1.33	better anticancer activity than Compound 1
	C/C(=C\CN1C(=O)c2cccc(O)c2Nc2c(O)cc(O)cc21)CC/C=C(\C)CCC1OC1(C)C (stereo not drawn) [Compound 18]	> 30	> 30	7.45	> 30	
1.72	CCN1c2c(O)cccc2C(=O)N(C/C=C(\C)CC/C=C(\C)CCCC(C)(C)OC)c2cc(O)cc(O)c21 [Compound 85, 10-(11-methoxy-3,7,11-trimethyl-2,6-dodecadienyl)-4,6,8-trihydroxy-5-ethyl-5,10-dihydro-dibenzo[b,e][1,4]diazepin-11-one]	2.19	1.89	1.73	1.08	better anticancer activity than Compound 1
0.49	C/C(=C\CN1C(=O)c2cccc(O)c2N(C)c2c(O)cc(O)cc21)CCCC(C)CCCC(C)C (stereo not drawn) [Compound 100, 10-(3,7,11-trimethyl-2-dodecenyl)-4,6,8-trihydroxy-5-methyl-5,10-dihydro-dibenzo[b,e][1,4]diazepin-11-one]	0.37	0.69	0.23	0.65	better anticancer activity than Compound 1
1.63	CCN1c2c(O)cccc2C(=O)N(CC=C(C)CCCC(C)(CCCC(C)(C)OC)OC)c2cc(O)cc(O)c21 (stereo not drawn) [Compound 87, 10-(7,11-dimethoxy-3,7,11-trimethyl-2-dodecenyl)-4,6,8-trihydroxy-5-ethyl-5,10-dihydro-dibenzo[b,e][1,4]diazepin-11-one]	2.4	1.83	0.91	1.39	better anticancer activity than Compound 1
12.3	COC(C)(CCC=C(C)C)CCC/C(C)=C/CN1C(=O)c2cccc(O)c2Nc2c(O)cc(O)cc21 (stereo not drawn) [Compound 83]	6.71	19.6	9.74	13.2	
1.4	CCCCN1c2c(O)cccc2C(=O)N(C/C=C(\C)CC/C=C(\C)CCC=C(C)C)c2cc(O)cc(O)c21 [Compound 64, 10-farnesyl-4,6,8-trihydroxy-5-n-butyl-5,10-dihydro-dibenzo[b,e][1,4]diazepin-11-one]	1.39	2.5	0.56	1.14	better anticancer activity than Compound 1
1.53	CCN1c2c(O)cccc2C(=O)N(C/C=C(\C)CC/C=C(\C)CCC=C(C)C)c2cc(O)cc(O)c21 [Compound 14, 10-farnesyl-4,6,8-trihydroxy-5-ethyl-5,10-dihydro-dibenzo[b,e][1,4]diazepin-11-one]	2.16	2.04	0.76	1.15	
13.7	CC(=O)NC(C)(CCC=C(C)C)CCC/C(C)=C/CN1C(=O)c2cccc(O)c2Nc2c(O)cc(O)cc21 (stereo not drawn) [Compound 92, 10-(7-acetamido-3,7,11-trimethyldodeca-2,10-dienyl)-4,6,8-trihydroxy-5,10-dihydro-dibenzo[b,e][1,4]diazepin-11-one]	11.1	> 30	13.5	16.6	
